Assay results as given in ChEMBL document CHEMBL1156091, “Stereoselective total synthesis of a potent natural antifungal compound (6S)-5,6,dihydro-6-[(2R)-2-hydroxy-6-phenyl hexyl]-2H-pyran-2-one” (2009).

Tested on: Cladosporium cucumerinum
Experiment: Antifungal activity against phytopathogenic Cladosporium cucumerinum by bioautographic TLC assay
Assay type: functional

SMILES	MIC
O=C1C=CC[C@@H](C[C@H](O)CCCCc2ccccc2)O1	1 µg
Clc1ccc(COC(Cn2ccnc2)c2ccc(Cl)cc2Cl)c(Cl)c1 (configuration not stated) [MICONAZOLE]	1 µg
